Data published in publication PMC4279406, “Simultaneous targeting of PI3Kδ and a PI3Kδ-dependent MEK1/2-Erk1/2 pathway for therapy in pediatric B-cell acute lymphoblastic leukemia” (Oncotarget, 2014).

Legend:
[1] = system: Raji MEK DD cells; assay: Erk1/2 phosphorylation in Raji cells expressing MEK DD (Western blot); format: cell-based, human; conditions: 1 h
Description: Figure 5 Inhibition of Erk1/2 phosphorylation by X-370 contributed to its antiproliferative activity (A-C) X-370 inhibited Erk1/2 phosphorylation via PI3K-PDK1-MEK1/2 cascade but not the PI3K-Gab1 positive feedback loop. (A) Raji and SU-DHL-6 cells were exposed to 1 μM X370 for 3 h and protein fraction from cellular membrane was separated using Native Membrane Protein Extraction Kit and probed. WCL: whole cell lysate. (B) Inhibition of PDK1 or MEK1/2 abrogated Erk1/2 phosphorylation. Cells were treated with pharmacological inhibitors of Raf (AZ 628, PLX4032), MEK1/2 (AZD6244), p90RSK (BI-D1870), PI3Kδ (X-370), PDK1 (BX-912), Akt (MK-2206), mTOR (AZD8055) or mTORC1 (Rapamycin) respectively and indicated proteins were detected. (C) X-370 disrupted the association between PDK1 and MEK1/2. Raji cells were treated with 1 μM X370 for 1 h and cell lysates were immunoprecipitated with anti-PDK1 antibody and indicated proteins were detected. WCL: whole cell lysate. […] (E) Raji and Raji MEK DD cells were treated with X-370 for 72 h and cell proliferation was detected by CCK-8 assay. (F) Raji MEK DD cells were treated with X-370 and AZD6244 and cell proliferation was detected by CCK-8 assay. Data were show as mean ± SD of three independent experiments. *: p < 0.05 determined by t-tests at each data point. […]

[2] = system: SU-DHL-6 cells; assay: Signaling by Western blot; format: cell-based, human
Description: Raji and SU-DHL-6 cells were treated with X-370 for 1 h (left panel) or treated with 0.5 μM X-370 for indicated times (middle panel). Right panel, Raji cells were incubated in fresh medium following treatment with 0.5 μM X-370 for 1 h. Indicated proteins were detected. (B) Raji-R (the rituximab-resistant derivatives of Raji cells) cells were resistant to X-370. The activity of X-370 on the proliferation of Raji parent and Raji-R cells was determined by CCK-8 assay as described in the methods section. (C) X-370 blocked phosphorylation of Akt but not Erk1/2 in Raji-R cells. Raji-R cells were treated with X-370 for 1h and indicated proteins were detected. Data shown are representative from three independent experiments.
Figure 5 Inhibition of Erk1/2 phosphorylation by X-370 contributed to its antiproliferative activity (A-C) X-370 inhibited Erk1/2 phosphorylation via PI3K-PDK1-MEK1/2 cascade but not the PI3K-Gab1 positive feedback loop. (A) Raji and SU-DHL-6 cells were exposed to 1 μM X370 for 3 h and protein fraction from cellular membrane was separated using Native Membrane Protein Extraction Kit and probed. WCL: whole cell lysate. (B) Inhibition of PDK1 or MEK1/2 abrogated Erk1/2 phosphorylation. Cells were treated with pharmacological inhibitors of Raf (AZ 628, PLX4032), MEK1/2 (AZD6244), p90RSK (BI-D1870), PI3Kδ (X-370), PDK1 (BX-912), Akt (MK-2206), mTOR (AZD8055) or mTORC1 (Rapamycin) respectively and indicated proteins were detected. (C) X-370 disrupted the association between PDK1 and MEK1/2. Raji cells were treated with 1 μM X370 for 1 h and cell lysates were immunoprecipitated with anti-PDK1 antibody and indicated proteins were detected. WCL: whole cell lysate. (D-F) Inhibition of Erk1/2 phosphorylation was required for the anti-proliferative activity of X-370. (D) Raji cells ectopically expressing a constitutively activated phospho-mimic MEK1 mutant (MEK1 […] or MEK DD) were incubated with X-370 or AZD6244 for 1 h and then subjected to Western blot. (E) Raji and Raji MEK DD cells were treated with X-370 for 72 h and cell proliferation was detected by CCK-8 assay. (F) Raji MEK DD cells were treated with X-370 and AZD6244 and cell proliferation was detected by CCK-8 assay. Data were show as mean ± SD of three independent experiments. *: p < 0.05 determined by t-tests at each data point. […]
Cells were treated as indicated conditions and then subjected to lysate to perform standard Western blot as described previously1. Briefly, whole-cell lysates and SDS-loading buffer diluted cell fractions were analyzed on SDS-PAGE gels. Transfer to nitrocellulose membranes, nonfat milk blocking, probing with indicated primary antibodies and the corresponding HRP-conjugated second antibodies.
Chemiluminescence were performed and captured using ImageQuant LAS 4000 (GE healthcare Life Sciences, Piscataway, NJ, USA) and band intensity was measure both with ImageQuant™ TL (GE Healthcare Life Sciences) 2. […]
(also on this page, place not known: PI3Kδ -dependent MEK1/2 - B -cell previously 1. whole -cell SDS -loading SDS -PAGE HRP -conjugated (G E A B Val828 Trp760 Thr750 Met752 Tyr813 affinity pocket specificity pocket hinge Glu826 CAL-101 X-370) […]
(1 picture or pasted object on this page, not shown here)

O=C(N1CCCC1)N1CCC(n2cnc3c(-n4c(C(F)F)nc5ccccc54)nc(N4CCOCC4)nc32)CC1 [X-370]
Erk1/2 phosphorylation [1]: failed to inhibit | phosphorylation of Erk1/2 at T202/Y204 ([2]; SU-DHL-6): decreased in lockstep with inactivation of Akt | phosphorylation of Akt at the membrane ([2]; SU-DHL-6, 1 μM, 3 h, membrane fraction): abolished | concentration as low as which Akt phosphorylation was significantly reduced ([2]; SU-DHL-6, 1 h): 5 nM | reversibility of action on PI3K and Erk1/2 after compound removal ([2]; SU-DHL-6, 0.5 μM 1 h then drug-free medium, restoration after 15 minutes to 1 h): rapidly reversible
